The test system of this experiment is Thymocyte. Briefly: Inhibition of H2O2-induced cell death of rat thymocyte assessed as cell viability. It is filed as functional, cell-based.

One may read the IC50 as the concentration needed to halve the response being measured.

In the case of `COc1cc(/C=C/C(=O)CC(=O)/C=C/c2ccc(O)c(OC)c2)ccc1O` [CURCUMIN], the IC50 turned out to be 1020 nM.
Take `COc1cc(/C=C/C(=O)CC(=O)/C=C/c2cc(OC)c(O)c(C(C)/C=C/c3cc(OC)c(OC)cc3OC)c2)ccc1O` (stereo not drawn) [CASSUMUNIN B]: the IC50 was 220 nM.
In the case of `COc1cc(/C=C/C(=O)CC(=O)/C=C/c2cc(OC)c(O)c(C(C)/C=C/c3ccc(OC)c(OC)c3)c2)ccc1O` (stereo not drawn) [CASSUMUNIN A] it was 170 nM.

Values taken from ChEMBL document CHEMBL1150879, “Synthesis of (+/-)-cassumunins A and B, new curcuminoid antioxidants having protective activity of the living cell against oxidative damage” (J Nat Prod, 1998).
